The results in this text go back to patent publication US7981893B2, “Heteroaryl compounds, compositions thereof, and methods of treatment therewith” (Signal Pharmaceuticals, LLC, priority 2006, dated 2011).

What is called melting point is the temperature, or range, at which the solid turns liquid.

SMILES strings stand for the structures.

On to `O=C1NCc2cc(-c3cnc4[nH]c(=O)n(CC5CCCCC5)c4n3)ccc21` [Compound 127, 1-(Cyclohexylmethyl)-6-(1-oxoisoindolin-5-yl)-1H-imidazo[4,5-b]pyrazin-2(3H)-one], for which the melting point was in the range of 337 to 339 °C.

`O=C1Cc2cc(-c3cnc4[nH]c(=O)n(CC5CCCCC5)c4n3)ccc2N1` [Compound 129, 1-(Cyclohexylmethyl)-6-(2-oxoindolin-5-yl)-1H-imidazo[4,5-b]pyrazin-2(3H)-one] displayed a melting point of 313 to 316 °C.

As for `O=c1[nH]c2ncc(-c3ccc4[nH]ncc4c3)nc2n1CC1CCCCC1` [Compound 130, 1-(Cyclohexylmethyl)-6-(1H-indazol-5-yl)-1H-imidazo[4,5-b]pyrazin-2(3H)-one], the melting point is 311 to 313 °C.

With `COc1ccc(-c2cnc3[nH]c(=O)n(CC4CCCCC4)c3n2)cn1` [Compound 131, 1-(Cyclohexylmethyl)-6-(6-methoxypyridin-3-yl)-1H-imidazo[4,5-b]pyrazin-2(3H)-one], the melting point lay within 235 to 237 °C.

As to `O=c1[nH]c2ncc(-c3ccc(O)cc3)nc2n1C1CCOCC1` [Compound 132, 6-(4-Hydroxyphenyl)-1-(tetrahydro-2H-pyran-4-yl)-1H-imidazo[4,5-b]pyrazin-2(3H)-one], the melting point was 382 to 383 °C.

Turning to `O=c1[nH]c2ncc(-c3ccc(O)cc3)nc2n1CC1CCNCC1` [Compound 133, 6-(4-Hydroxyphenyl)-1-(piperidin-4-ylmethyl)-1H-imidazo[4,5-b]pyrazin-2(3H)-one], the melting point is 300 °C (dec.).

The compound `O=c1[nH]c2ncc(-c3ccc(O)nc3)nc2n1CC1CCCCC1` [Compound 135, 1-(Cyclohexylmethyl)-6-(6-hydroxypyridin-3-yl)-1H-imidazo[4,5-b]pyrazin-2(3H)-one] had a melting point greater than 400 °C.

`COc1cc(-c2cnc3[nH]c(=O)n(CC4CCCCC4)c3n2)ccn1` [Compound 136, 1-(Cyclohexylmethyl)-6-(2-methoxypyridin-4-yl)-1H-imidazo[4,5-b]pyrazin-2(3H)-one]: the melting point is 295 to 297 °C.

With `O=C1Cc2ccc(-c3cnc4[nH]c(=O)n(CC5CCCCC5)c4n3)cc2N1` [Compound 140, 1-(Cyclohexylmethyl)-6-(2-oxoindolin-6-yl)-1H-imidazo[4,5-b]pyrazin-2(3H)-one], the melting point was in the range of 334 to 336 °C.

In the case of `Cc1cc(C(=O)O)ccc1-c1cnc2[nH]c(=O)n(CC3CCCCC3)c2n1` [Compound 141, 4-(3-(Cyclohexylmethyl)-2-oxo-2,3-dihydro-1H-imidazo[4,5-b]pyrazin-5-yl)-3-methyl benzoic acid], the melting point is 244 to 247 °C.

Consider `CNC(=O)c1ccc(-c2cnc3[nH]c(=O)n(CC4CCOCC4)c3n2)cc1` [Compound 142, N-Methyl-4-(2-oxo-3-((tetrahydro-2H-pyran-4-yl)methyl)-2,3-dihydro-1H-imidazo[4,5-b]pyrazin-5-yl)benzamide], for which the melting point fell in the range of 328 to 330 °C.

In the case of `NC(=O)c1ccc(-c2cnc3[nH]c(=O)n(CC4CCOCC4)c3n2)cc1` [Compound 143, 4-(2-oxo-3-((Tetrahydro-2H-pyran-4-yl)methyl)-2,3-dihydro-1H-imidazo[4,5-b]pyrazin-5-yl)benzamide], the melting point lay in the range of 273 to 275 °C.

In turn, `CC(C)(O)c1ccc(-c2cnc3[nH]c(=O)n(CC4CCOCC4)c3n2)cc1` [Compound 145, 6-(4-(2-Hydroxypropan-2-yl)phenyl)-1-((tetrahydro-2H-pyran-4-yl)methyl)-1H-imidazo[4,5-b]pyrazin-2(3H)-one] displayed a melting point of 212 to 214 °C.

In turn, `O=c1[nH]c2ncc(-c3ccc4[nH]ccc4c3)nc2n1CC1CCOCC1` [Compound 146, 6-(1H-Indol-5-yl)-1-((tetrahydro-2H-pyran-4-yl)methyl)-1H-imidazo[4,5-b]pyrazin-2(3H)-one] had a melting point of 305 to 308 °C.

For the compound `O=c1[nH]c2ncc(-c3ccc4[nH]cnc4c3)nc2n1CC1CCCCC1` [Compound 148, 6-(1H-Benzo[d]imidazol-5-yl)-1-(cyclohexylmethyl)-1H-imidazo[4,5-b]pyrazin-2(3H)-one], the melting point fell in the range of 217 to 220 °C.

The compound `NC(=O)c1ccc(-c2cnc3[nH]c(=O)n(CCC4CCOCC4)c3n2)cc1` [Compound 149, 4-(2-oxo-3-(2-(Tetrahydro-2H-pyran-4-yl)ethyl)-2,3-dihydro-1H-imidazo[4,5-b]pyrazin-5-yl)benzamide] showed a melting point of 233 to 236 °C.

In turn, `O=c1[nH]c2ncc(-c3cccc(-c4cn[nH]n4)c3)nc2n1CC1CCCCC1` [Compound 150, 6-(3-(2H-1,2,3-Triazol-4-yl)phenyl)-1-(cyclohexylmethyl)-1H-imidazo[4,5-b]pyrazin-2(3H)-one] came in with a melting point of 299 to 301 °C.

Take `O=c1[nH]c2ncc(-c3ccc(-n4ccnc4)cc3)nc2n1CC1CCCCC1` [Compound 151, 6-(4-(1H-Imidazol-1-yl)phenyl)-1-(cyclohexylmethyl)-1H-imidazo[4,5-b]pyrazin-2(3H)-one]: the melting point is 284 to 287 °C.

As for `O=c1[nH]c2ncc(-c3ccnc(O)c3)nc2n1CC1CCCCC1` [Compound 154, 1-(Cyclohexylmethyl)-6-(2-hydroxypyridin-4-yl)-1H-imidazo[4,5-b]pyrazin-2(3H)-one], the melting point is 311 to 313 °C.

The compound `O=c1[nH]c2ncc(-c3ccc(-c4ncc[nH]4)cc3)nc2n1CC1CCCCC1` [Compound 156, 6-(4-(1H-Imidazol-2-yl)phenyl)-1-(cyclohexylmethyl)-1H-imidazo[4,5-b]pyrazin-2(3H)-one] yielded a melting point of 349 to 351 °C.

`O=c1[nH]c2ncc(-c3ccc(-n4ccnn4)cc3)nc2n1CC1CCCCC1` [Compound 157, 6-(4-(1H-1,2,3-Triazol-1-yl)phenyl)-1-(cyclohexylmethyl)-1H-imidazo[4,5-b]pyrazin-2(3H)-one] displayed a melting point of 276 to 278 °C.

Regarding `Cc1nc(-c2ccc(-c3cnc4[nH]c(=O)n(CC5CCCCC5)c4n3)cc2)n[nH]1` [Compound 159, 1-(Cyclohexylmethyl)-6-(4-(5-methyl-1H-1,2,4-triazol-3-yl)phenyl)-1H-imidazo[4,5-b]pyrazin-2(3H)-one], the melting point lay within 315 to 318 °C.

`O=c1[nH]c2ncc(-c3ccc(-c4cc[nH]n4)cc3)nc2n1CC1CCCCC1` [Compound 160, 6-(4-(1H-Pyrazol-3-yl)phenyl)-1-(cyclohexylmethyl)-1H-imidazo[4,5-b]pyrazin-2(3H)-one]: the melting point was in the range of 292 to 294 °C.

As for `O=c1[nH]c2ncc(-c3ccc(-c4cn[nH]c4)cc3)nc2n1CC1CCCCC1` [Compound 161, 6-(4-(1H-Pyrazol-4-yl)phenyl)-1-(cyclohexylmethyl)-1H-imidazo[4,5-b]pyrazin-2(3H)-one], the melting point lay within 305 to 307 °C.

`O=c1[nH]c2ncc(-c3ccc(-c4n[nH]c(C(F)(F)F)n4)cc3)nc2n1CC1CCCCC1` [Compound 163, 1-(Cyclohexylmethyl)-6-(4-(5-(trifluoromethyl)-1H-1,2,4-triazol-3-yl)phenyl)-1H-imidazo[4,5-b]pyrazin-2(3H)-one] returned a melting point of 303 to 305 °C.

In the case of `O=c1[nH]c2ncc(-c3ccc(O)cc3)nc2n1CC1CCCO1` (centres unmarked) [Compound 165, 6-(4-Hydroxyphenyl)-1-((tetrahydrofuran-2-yl)methyl)-1H-imidazo[4,5-b]pyrazin-2(3H)-one], the melting point lay within 256 to 258 °C.

As for `O=c1[nH]c2ncc(-c3cccc(-c4nc[nH]n4)c3)nc2n1CC1CCCCC1` [Compound 166, 6-(3-(1H-1,2,4-Triazol-3-yl)phenyl)-1-(cyclohexylmethyl)-1H-imidazo[4,5-b]pyrazin-2(3H)-one], the melting point was in the range of 305 to 307 °C.

`Cn1cc(-c2cnc3[nH]c(=O)n(CC4CCOCC4)c3n2)cn1` [Compound 170, 6-(1-Methyl-1H-pyrazol-4-yl)-1-((tetrahydro-2H-pyran-4-yl)methyl)-1H-imidazo[4,5-b]pyrazin-2(3H)-one] registered a melting point of 224 to 226 °C.

Regarding `O=c1[nH]c2ncc(-c3ccc(O)cc3)nc2n1CC1CCOC1` (centres unmarked) [Compound 172, 6-(4-Hydroxyphenyl)-1-((tetrahydrofuran-3-yl)methyl)-1H-imidazo[4,5-b]pyrazin-2(3H)-one], the melting point was in the range of 256 to 258 °C.

On to `O=c1[nH]c2ncc(-c3ccc(-c4n[nH]c(CN5CCOCC5)n4)cc3)nc2n1CC1CCOCC1` [Compound 175, 6-(4-(5-(Morpholinomethyl)-1H-1,2,4-triazol-3-yl)phenyl)-1-((tetrahydro-2H-pyran-4-yl)methyl)-1H-imidazo[4,5-b]pyrazin-2(3H)-one], for which the melting point is 281 to 283 °C.

The compound `O=C1CCCN1CCCn1c(=O)[nH]c2ncc(-c3ccc(O)cc3)nc21` [Compound 176, 6-(4-Hydroxyphenyl)-1-(3-(2-oxopyrrolidin-1-yl)propyl)-1H-imidazo[4,5-b]pyrazin-2(3H)-one] came in with a melting point of 305 to 306 °C.

`COCc1nc(-c2ccc(-c3cnc4[nH]c(=O)n(CC5CCOCC5)c4n3)cc2)n[nH]1` [Compound 180, 6-(4-(5-(Methoxymethyl)-1H-1,2,4-triazol-3-yl)phenyl)-1-((tetrahydro-2H-pyran-4-yl)methyl)-1H-imidazo[4,5-b]pyrazin-2(3H)-one] yielded a melting point of 273 to 276 °C.

For `Cc1n[nH]cc1-c1cnc2[nH]c(=O)n(CC3CCOCC3)c2n1` [Compound 182, 6-(3-Methyl-1H-pyrazol-4-yl)-1-((tetrahydro-2H-pyran-4-yl)methyl)-1H-imidazo[4,5-b]pyrazin-2(3H)-one], the melting point is 222 to 224 °C.

In turn, `O=c1[nH]c2ncc(-c3cn[nH]c3)nc2n1CC1CCOCC1` [Compound 183, 6-(1H-Pyrazol-4-yl)-1-((tetrahydro-2H-pyran-4-yl)methyl)-1H-imidazo[4,5-b]pyrazin-2(3H)-one] came in with a melting point of 238 to 240 °C.

As to `CC(C)(O)c1nc(-c2ccc(-c3cnc4[nH]c(=O)n(CC5CCOCC5)c4n3)cc2)n[nH]1` [Compound 185, 6-(4-(5-(2-Hydroxypropan-2-yl)-1H-1,2,4-triazol-3-yl)phenyl)-1-((tetrahydro-2H-pyran-4-yl)methyl)-1H-imidazo[4,5-b]pyrazin-2(3H)-one], the melting point lay in the range of 249 to 253 °C.
